Measurements from US20080118437A1, “Diagnosis and treatment O prostate cancer” (Regents of the University of Michigan, priority 2006, published 2008).

How the values were obtained:
[1] = in vivo; cited from earlier work
PC-3Luc cells [2] = experiment: Bioluminescent in vivo model of metastasis (Example 4, antibodies and/or docetaxel); parameters: species or system male SCID mice
Experimental: Bioluminescent imaging of PC-3Luc was preformed as previously described through The University of Michigan Small Animal Imaging Resource facility (MSAIR) (Loberg et al., 2006. Neoplasia. 8:578-586). Briefly, PC-3Luc cells were introduced into male SCID mice (5-6 wks of age) by intracardiac injections. Mice were serially imaged weekly for up to 12 weeks using a CCD IVIS system using a 50 mm lens (Xenogen Corp, Alameda, Calif.) and the results were analyzed using LIVING IMAGE software (Xenogen Corp.). Mice were separated into groups and treatment began at week 2 post-intracardiac injection and mice received 2 mg/Kg antibody twice weekly by intraperitoneal (i.p.) injection (for up to eight weeks) and/or 40 mg/Kg Taxotere i.p. injection once per week for three weeks. Mice were injected with luciferin (40 mg/mL) intraperitoneally and ventral images were acquired 15 min postinjection under 1.75% isofluorane/air anesthesia. Total tumor burden of each animal was calculated using regions of interest (ROIs) that encompassed the entire animal. Animals were sacrificed after week 6 image and individual organs were harvested and immediately placed in formalin.

LNCaP cells = experiment: WST-1 proliferation assay with MCP-1; format: cell-based, human; details: compared to vehicle treated controls
Experimental: (§1) Proliferation Assay-Cells were seeded at a density of 4×10^3 cells/well in a six well plate in regular media. Twenty four hours after seeding the media was changed with serum free media with increasing concentrations of MCP-1(1-100 ng/mL) in the presence of absence of LY294002 (1 μM). Cell growth was determined at 24, 48, 72, and 96 hours after seeding using the WST-1 assay (Pierce Biotech) following the manufacturer's instructions.

PC-3 cells [3] = experiment: Immunofluorescence of actin rearrangement and lamellipodial formation; format: cell-based, human
Experimental: Immunofluorescence-PC-3 cells were plated on glass coverslips and serum starved for 2 hours prior to stimulation. Cells were stimulated with MCP-1 (100 ng/mL) for 30 min in the presence or absence of identified inhibitors. Stimulation with SDF-1 (200 ng/mL) for 30 min was used as a positive control. Cells were fixed in 3.7% paraformaldehyde, methanol-free for 10 min at room temperature then permeablized with 0.5% Triton X-100 for 5 min at room temperature. Cells were rinsed twice with PBS and incubated for 30 minutes at room temperature with 3% bovine serum albumin (BSA) in PBS+0.05% Tween 20 to prepare cells for staining. Cells were incubated with Phalloidin AlexaFluor S68 (Molecular Probes, Inc.) at a 1:40 dilution in BSA solution to label actin. Cells were washed and mounted on coverslips with Pro-Long Antifade containing DAPI (Molecular Probes, Inc.) following manufacturer's instructions. Immunofluoresence was visualized using a multi-photon laser scanning microscope (MPLSM), consisting of a Mai Tai Broadband Ti:Sapphire laser, tuneable between 710-990 nm and a modified Olympus Fluoview 300 confocal microscope with long working distance water immersion IR objectives. Images were captured with a 60× objective (zoom ×2), 800 nm excitation wavelength, 605 nm and 520 nm centered emmission filters.

VCaP cells [4] = experiment: WST-1 proliferation assay with MCP-1 with or without LY294002; format: cell-based, human; details: increasing concentrations, 24-96 hours
Experimental: as §1

PC-3 cells [5] = experiment: as above; format: cell-based, human; details: increasing concentrations, 24-96 hours
Experimental: as §1

VCaP cells [6] = experiment: Fluorescence-based migration assay toward hrMCP-1; format: cell-based, human; details: for VCaP cell migration, mean fluoresence±SD: 24 hours
Experimental: (§2) Flouresence-based Migration Assay—Cell migration was assessed using the Innocyte Cell Migration Assay (Calbiochem, Inc.) following the manufacturer's instructions. Briefly, increasing concentrations of MCP-1 (1-100 ng/mL) in the presence and absence of CCR2 inhibitors or neutralizing antibodies were added to the lower chamber of a 96 well plate. Cells were harvested by 0.5 μM EDTA release and resuspended at 2.5×10^5 cells/mL in serum free media. 2.5×10^4 cells were added to the upper chamber and allowed to migrate through the membrane with 8 μm pores for 24 hours at 37° C. and 5% CO2 atmosphere. Cells that migrated through the membrane were detached and labeled with Calcein AM and fluorescence was measured using fluorescent plate reader with excitation wavelength of 485 nm and emission wavelength of 520 nm. The experiments were repeated twice and each conditioned was performed in quadruplicate in each experiment.

PC-3 cells [7] = experiment: Fluorescence-based migration assay toward hrMCP-1; format: cell-based, human; details: for PC-3 cell migration, mean fluoresence±SD: 24 hours
Experimental: as §2

PC-3Luc cells [8] = experiment: WST-1 proliferation assay with hrCCL2 and anti-CCL2 antibodies; format: cell-based, human; details: 72 hours, antibodies 30 μg/mL
Experimental: Cells were seeded at a density of 1×10^5 cells/ml for PC-3Luc cells in a 96 well plate in RPMI+10% FBS (FCS is mentioned in previous section). Twenty-four hours after seeding, media was changed to either serum-free RPMI or RPMI+10% FBS. Cell growth was determined 72 hours later using the WST-1 assay (Pierce Biotech, Inc.) following the manufacturer's instructions.

VCaP cells [9] = experiment: Western blot of MCP-1 induced signaling; format: cell-based, human; details: MCP-1 100 ng/mL, time dependent, maximal at 30 min; dose-dependent 0.1-100 ng/mL
Experimental: (§3) Western Blot-Cells were lysed in RIPA buffer (50 mM Tris-HCl, pH 7.4, 1% NP-40, 150 mM NaCl, 1 mM EDTA, 1 mM PMSF, 1 mM Na3VO4, 1 mM NaF, 1 uM okadaic acid and 1 ug/mL aprotinin, leupeptin and pepstatin). Proteins were separated under reducing conditions by SDS-PAGE and transferred onto nitrocellulose membrane. The membranes were blocked with 5% milk in TBST (0.1% Tween in TBS) for 1 hour at room temperature. They were incubated overnight at 4° C. with primary antibodies. Membranes were washed 3 times prior to incubation with HRP-conjugated secondary antibodies (Cell Signaling, Beverly, Mass.) for 1 hour at room temperature. Protein expression was visualized by ECL chemiluminescent (Promega, Madison, Wis.) and quantitated using Image J software (NCl, Bethesda, Md.).

PC-3 cells [10] = experiment: Western blot of MCP-1 induced signaling; format: cell-based, human; details: MCP-1 100 ng/mL
Experimental: as §3

[11] = test system: primary mouse calvaria osteoblasts; experiment: CCL2 ELISA of primary osteoblasts stimulated with PTHrP; format: cell-based; details: maximal response at 2 hours post-stimulation
Experimental: Primary mouse calvarial cells were isolated as previously described. Briefly, calvaria of newborn mice at day 4 were dissected, isolated, and subjected to sequential digestions in collagenase A (2 mg/ml) and 0.25% trypsin for 20, 40, and 90 minutes. Cells from the third digest were washed, counted, and plated in αMEM with 10% FBS containing 100 U/ml of penicillin and streptomycin. Primary cultures were used without passage. For differentiation, both MC-4 and primary cells were induced to differentiate and form mineralized matrix with the addition of ascorbic acid (50 μg/ml) and β-glycerophosphate (10 mM) with media replacement (every 2 days). In proliferation phase, MC-4 cells were serum staved for 24 h before addition of PTHrP or vehicle for indicated time. Otherwise, cells were treated with PTHrP or vehicle for indicated time without serum starvation.
A mouse CCL2 specific ELISA kit was purchased from BD Biosciences (San Diego, Calif.) to measure the protein level of CCL2 in cell culture media. Assays were performed as recommended by the manufacturer to determine levels of secreted CCL2 in MC-4 or primary cell culture media. Values were calculated from standard curves set up for each assay. The data are based on a triplicate experiments performed independently. Data are shown as mean +SEM in the figures.

[12] = test system: MC3T3-E1 subclone 4 (MC-4) OB cells; experiment: CCL2 ELISA of osteoblast cells stimulated with PTHrP; format: cell-based, mouse; details: PTHrP 10 nM; day 7 and day 14 after induced differentiation
Experimental: VCaP cells were obtained from a lumbar vertebral metastatic lesion through the Rapid Autopsy program at the University of Michigan (Korenchuk et al., 2001; 2: 163-168; Loberg et al., Urol. One. 2006; 24:161-168). Cells were cultured in Dulbecco's Modified Eagle Medium supplemented with 10% Fetal Bovine Serum and 1% antibiotic/antimicotic and incubated at 37° C. PC3 prostate cancer cells were obtained from the American Type Culture Collection (Manassas, Va.). Cells were cultured in RPMI-1640 with L-Glutamine (Cambrex Bioproducts) and supplemented with 10% Fetal Bovine Serum and 1% antibiotic/antimicotic. Cells were incubated at 37° C. and subcultured according to ATCC specifications. MC3T3-E1 subclone 4 cells (MC-4) with high osteoblast differentiation potential were maintained and passaged every 4-5 days as previously described. Briefly, cells were grown in AMEM (Gibco) containing 100 units/ml penicillin and streptomycin and 10% FBS. MC3T3 cells were plated at 40,000-50,000 cells/cm2, and differentiation was induced with the addition of ascorbic acid (50 μg/ml) for 7 days. The culture medium was changed at days 1, 3, 5, and 7. […]
A mouse CCL2 specific ELISA kit was purchased from BD Biosciences (San Diego, Calif.) to measure the protein level of CCL2 in cell culture media. […] Values were calculated from standard curves set up for each assay. […]

[13] = test system: HBME, HAEC and HDVMEC cells; experiment: CCL2 synthesis by endothelial cells stimulated with PTHrP; format: cell-based, human; details: PTHrP 10 nM
Experimental: To determine the role of CCL2 in the development of prostate cancer-bone metastasis the level of CCL2 was analyzed by ELISA. […]

**Q.** With “VEGF TRAPR1R2: VEGF TRAP Fc fusion protein (Holash et al.)” as the compound, how does the AUC [1] read?
**A.** 36.28 µg·days/mL

**Q.** And the Cmax [1]?
**A.** 16000 ng/mL

**Q.** What does the source list for CC(=O)O[C@@]12CO[C@@H]1C[C@H](O)[C@@]1(C)C(=O)[C@H](O)C3=C(C)[C@@H](OC(=O)[C@H](O)[C@@H](NC(=O)OC(C)(C)C)c4ccccc4)C[C@@](O)([C@@H](OC(=O)c4ccccc4)[C@H]21)C3(C)C [docetaxel, (2R,3S)-N-carboxy-3-phenylisoserine, N-tert-butyl ester, 13-ester with 5b-20-epoxy-12a,4,7b,10b,13a-hexahydroxytax-11-en-9-one 4-acetate 2-benzoate, trihydrate]?
**A.** animals of group counted at Wk 6 (tumor regression, Table 2) (PC-3Luc cells [2]; Wk 6 = First week after cessation of Taxotere): 2 of 9; animals of group counted at Wk 9 (tumor regression, Table 2) (PC-3Luc cells [2]; Wk 9 = First week after cessation of Antibodies): 1 of 9; total tumor burden at Day 35 (PC-3Luc cells [2]; antibodies 2 mg/Kg i.p. twice weekly, docetaxel 40 mg/Kg i.p.): 3.19 % of PBS-treated animals; tumor burden during and after therapy (docetaxel, combination, antibody maintenance) (PC-3Luc cells [2]; docetaxel 40 mg/Kg i.p. qw for 3 weeks, antibodies 2 mg/Kg i.p. twice weekly until week 8): decrease in tumor burden while receiving therapy

**Q.** Which “proliferation in response to MCP-1” value (LNCaP cells) does the source give for “hrMCP-1: Human recombinant MCP-1 (CC chemokine ligand 2) from Chemicon International” here?
**A.** no effect

**Q.** What about the “actin cytoskeleton: finger-like projections and lamellipodia” value (PC-3 cells [3]; MCP-1 100 ng/mL, 30 min, compared to control cells) of the same compound?
**A.** increased formation

**Q.** What about the “proliferation in response to MCP-1” value (VCaP cells [4]) of the same compound?
**A.** enhanced proliferation

**Q.** And the “proliferation in response to MCP-1” value (PC-3 cells [5])?
**A.** enhanced proliferation

**Q.** And the “VCaP cell migration, mean fluoresence±SD” value (VCaP cells [6]; hrMCP-1 1 ng/mL)?
**A.** 130.6±2.145

**Q.** What about the “VCaP cell migration, mean fluoresence±SD” value (VCaP cells [6]; hrMCP-1 10 ng/mL) of the same compound?
**A.** 176.1±9.051

**Q.** And the “VCaP cell migration, mean fluoresence±SD” value (VCaP cells [6]; hrMCP-1 100 ng/mL)?
**A.** 296.5±2.681

**Q.** And the “PC-3 cell migration, mean fluoresence±SD” value (PC-3 cells [7]; hrMCP-1 1 ng/mL)?
**A.** 83.53±2.981

**Q.** What about the “PC-3 cell migration, mean fluoresence±SD” value (PC-3 cells [7]; hrMCP-1 10 ng/mL) of the same compound?
**A.** 142.2±2.678

**Q.** What about the “PC-3 cell migration, mean fluoresence±SD” value (PC-3 cells [7]; hrMCP-1 100 ng/mL) of the same compound?
**A.** 248.1±0.761

**Q.** What about the “cell viability (WST-1) as a measure of proliferation, mean ±SD” value (PC-3Luc cells [8]; CCL2 10 ng/mL) of the same compound?
**A.** 136.2±7.81

**Q.** And the “cell viability (WST-1) as a measure of proliferation, mean ±SD” value (PC-3Luc cells [8]; CCL2 100 ng/mL)?
**A.** 168.15±5.44

**Q.** And the “Akt phosphorylation by immunoblot” value (VCaP cells [9])?
**A.** induced Akt phosphorylation

**Q.** And the GSK3α/β phosphorylation (PC-3 cells [10])?
**A.** no effect

**Q.** And the “p70 S6 kinase phosphorylation” value (PC-3 cells [10])?
**A.** induced p70 S6 kinase phosphorylation

**Q.** What about the “Akt phosphorylation by immunoblot” value (PC-3 cells [10]; time dependent, maximal at 30 min, dose-dependent 0.1-100 ng/mL) of the same compound?
**A.** induced Akt phosphorylation

**Q.** What does the source list for “PTHrP: Human Parathyroid hormone related protein (PTHrP)-(1-34) from Bachem”?
**A.** CCL2 expression [11]: increased CCL2 expression; CCL2 expression [12]: rapidly increased within 2 hours; synthesis of CCL2 [13]: increased their respective synthesis of CCL2

**Q.** Which “effect on MCP-1 induced actin rearrangement and lamellipodial formation” value (PC-3 cells [3]; co-incubation with MCP-1 100 ng/mL, RS-102895 1 μM) does the source give for O=C1Nc2ccccc2C2(CCN(CCc3ccc(C(F)(F)F)cc3)CC2)O1 [RS-102895] here?
**A.** did not prevent actin rearrangement and lamellipodial formation

**Q.** And the “effect on MCP-1 induced dose dependent migration of VCaP cells” value (VCaP cells [6]; MCP-1 1-100 ng/mL)?
**A.** attenuated

**Q.** What about the “effect on MCP-1 induced dose dependent migration of PC-3 cells” value (PC-3 cells [7]; MCP-1 1-100 ng/mL) of the same compound?
**A.** attenuated
